{
  "source": "patent US8691528B2",
  "about": "“Cell penetrating peptide” (Mitsubishi Tanabe Pharma Corporation, priority 2005, dated 2014)",
  "format_in_all_cases": "cell-based",
  "key": {"[1]": {"test_system": "HeLa cells", "experiment": "Confocal microscopic analysis of intracellular translocation of synthetic peptides in HeLa cells", "settings": "confocal microscopic analysis", "procedure": "(§1) Three kinds of cells were used for incorporating the peptides: CHO cells (ATCC NO. CCL-61), HeLa cells, and Jurkat cells. 10^4 CHO cells and HeLa cells and 10^5 Jurkat cells were separately inoculated to a 96-well plate, and cultured for 2 or 3 days. Subsequently, when the cells became confluent, each peptide solution was added to each type of cell, and the cells were incubated for 1 hour. After each type of cell was washed with PBS three times, 100 μL of 0.25% trypsin-1 mM EDTA solution was added, and trypsinization was performed at room temperature for 5 minutes. After 400 μL of PBS (10% FCS) was added to neutralize the trypsin, the cells were washed with 1 mL of HBSS (Hanks' Balanced Salt Solution/produced by Invitrogen) three times. After the washing, the cells were suspended in 50 μL of HBSS and analyzed using a confocal microscope. Measurements and analysis were performed using a confocal differential interference laser microscope system (Bio-Rad, Radience2100/Green He-Ne, 488 nm, microscope: Nikon, ECLIPSE E600).\nIn HeLa cells as with CHO cells, intracellular translocation experiments of synthetic peptides of modified PTD sequences were performed by confocal microscopic analysis."}, "[2]": {"test_system": "Jurkat cells", "experiment": "Confocal microscopic analysis of intracellular translocation of synthetic peptides in Jurkat cells", "procedure": "as §1\nIn Jurkat cells as well, intracellular translocation experiments of synthetic peptides of modified PTD sequences were performed by confocal microscopic analysis."}, "[3]": {"test_system": "CHO cells", "experiment": "Test of translocation of fluorescence-labeled peptides into CHO cells (FACS and confocal microscopic analysis)", "settings": "for intracellular translocation compared with KSH1 (in words): 50 μM, 25 μM, 12.5 μM and 6.5 μM; for contribution of the alanine-substituted amino acid to the intracellular translocation: comprehensive alanine substitution on the basis of KSH1-1", "procedure": "Each peptide solution, adjusted to 1 mM, was diluted with a medium to three levels, 100 μM, 50 μM, and 25 μM, and added to cells. Three kinds of cells were used: CHO cells, HeLa cells, and Jurkat cells. After each peptide solution was added, the cells were incubated for 1 hour. After the cells were washed with PBS three times, 100 μL of 0.25% trypsin-1 mM EDTA solution was added, and trypsinization was performed at room temperature for 5 minutes. After 400 μL of PBS (10% FCS) was added to stop the trypsinization, the cells were washed with 1 mL of HBSS three times. After the washing, the cells were suspended in 500 μL of PBS (10% FCS) and subjected to flowcytometry (hereinafter, FACS) analysis using FACS Calibur (Becton Dickinson).\nEach peptide was synthesized, fluorescently labeled, purified and dissolved in the same manner as Example 1-2, a test of translocation into CHO cells was performed, and an evaluation was performed by confocal microscopic analysis and FACS. FACS analysis was performed in the same manner as Example 1-3. For the KSH1 peptide and modified PTD sequences, i.e., KSH1-1 to KSH1-9 peptides (SEQ ID NOS:1 to 9 in the sequence listing), fluorescence intensities determined by FACS analysis are shown in FIG. 6. The peptide addition concentrations were 50 μM, 25 μM, 12.5 μM and 6.5 μM.\nTo determine which amino acids are important to the intracellular translocation, comprehensive alanine substitution was performed on the basis of KSH1-1 to design KSH1-11 (SEQ ID NO:11 in the sequence listing) to KSH1-23 (SEQ ID NO:22 in the sequence listing) and KSH1-35 (SEQ ID NO:32 in the sequence listing) (FIG. 7). Each peptide was synthesized, fluorescently labeled, purified and dissolved in the same manner as Example 1-2, a test of translocation into CHO cells was performed, and an evaluation was performed by confocal microscopic analysis and FACS. FACS analysis was performed in the same manner as Example 1-3. For KSH1 and modified PTD sequences, i.e., KSH11-11 to 23 and KSH1-35, fluorescence intensities determined by FACS analysis are shown in FIG. 8. The peptide addition concentrations were 50 μM, 25 μM, 12.5 μM and 6.5 μM.\nEach peptide was synthesized, fluorescently labeled, purified and dissolved in the same manner as Example 1-2, a test of translocation into CHO cells was performed, and an evaluation was performed by confocal microscopic analysis and FACS analysis. FACS analysis was performed in the same manner as Example 1-3. For KSH1 and modified PTD sequences, i.e., KSH11-24 to 1-26 and KSH1-28 to 1-30, fluorescence intensities determined by FACS analysis are shown in FIG. 10. The peptide addition concentrations were 50 μM, 25 μM, 12.5 μM and 6.5 μM.\nEach peptide was synthesized, fluorescently labeled, purified and dissolved in the same manner as Example 1-2, a test of translocation into CHO cells was performed, and an evaluation was performed by confocal microscopic analysis and FACS analysis. FACS analysis was performed in the same manner as Example 1-3. For KSH1 and modified PTD sequences, i.e., KSH1-27, KSH1-33, KSH1-34 and KSH1-36, fluorescence intensities determined by FACS analysis are shown in FIG. 12. The peptide addition concentrations were 50 μM, 25 μM, 12.5 μM and 6.5 μM.\nEach peptide was synthesized, fluorescently labeled, purified and dissolved in the same manner as Example 1-2, and an intracellular translocation test in CHO cells was performed by FACS analysis. Used for positive control were a PTD sequence derived from HIV TAT ([…] in the sequence listing) and the KSH1 peptide; used for negative control was a peptide sequence lacking intracellular transferability (SEQ ID NO:57 in the sequence listing)."}, "[4]": {"test_system": "CHO cells, HeLa cells, and Jurkat cells", "experiment": "Confocal microscopic analysis of intracellular translocation of fluorescence-labeled peptides", "settings": "for intracellular translocation compared with KSH2: FITC-labeled peptide; for capability of intracellular translocation compared with KSH2: FITC-labeled peptides in CHO, HeLa, and Jurkat cells", "description": "With the PTD derived from HIV TAT protein shown by SEQ ID NO:50 in the sequence listing as the positive control (in FIG. 1 to FIG. 3, denoted by “Positive” or “TAT”), and a mutant of the TAT-derived PTD shown by SEQ ID NO:51 in the sequence listing, reported by Ulo Langel et al. (Cell-Penetrating Peptides: Processes and Applications, Series: Pharmacology and Toxicology: Basic and Clinical Aspects Volume:3, 2002), as the negative control (in FIG. 1, denoted by “Negative”), the peptides of the 11 sequences selected in Example 1-1 were evaluated.\nThe peptides of the 11 sequences selected in Example 1-1 were synthesized by the solid phase method, and fluorescently labeled by coupling 5,6-Carboxyfluorescein to the N-terminus of each peptide. Furthermore, the peptides were purified by HPLC to obtain a purity of 70% or more. Subsequently, each fluorescently labeled peptide was dissolved in 10% Dimethyl Sulfoxide (DMSO) to obtain 1 mM (hereinafter referred to as peptide solution).\nas §1\nOf the novel PTD sequences found in Example 5, the KSH2 peptide is highly capable of translocating eGFP into cells; an attempt was made to modify the KSH2 peptide. The KSH2-1 to KSH2-4 peptides (SEQ ID NOS:44 to 47 in the sequence listing) were synthesized, fluorescently labeled, purified and dissolved in the same manner as Example 1-2, a test of translocation into CHO cells was performed, and confocal microscopic analysis was performed.\nFirst, two cases were examined: two cysteines were substituted with alanine (KSH2-1) or with tryptophan (KSH2-2). FITC-labeled peptides were synthesized, and their intracellular translocation efficiencies were examined using CHO, HeLa, and Jurkat cells (FIG. 21, the peptide addition concentration was 50 μM, 25 μM or 12.5 μM)."}},
  "note": "“Also recorded” adds a separate entry of the source.",
  "data": [
    {"substance": "KSH1-8: tryptophan cluster form with lysine substituted with arginine (RLWMRWYSPWTRRYG; Designed peptide to act as PTD(Protein Transduction Domain))", "values": [
      {"measurement": "intracellular translocation in HeLa cells (modified peptides with better translocation)", "setting": "[1]", "value": "better intracellular translocation"},
      {"measurement": "intracellular translocation in Jurkat cells as compared to that of SEQ ID NO:37", "setting": "[2]", "value": "better intracellular translocation"},
      {"measurement": "intracellular translocation compared with KSH1 (in words)", "setting": "[3]", "value": "clearly accentuated intracellular translocation"},
      {"measurement": "intracellular translocation (in words)", "setting": "[3]; at 25 μM or less", "value": "accentuated"},
      {"measurement": "intracellular translocation (in words)", "setting": "[3]; at 50 μM", "value": "decreased"}
    ]},
    {"substance": "KSH1-9: modified KSH1 with the number of tryptophans increased to 4 (RLWMRWYSPWTRRWG; Designed peptide to act as PTD(Protein Transduction Domain))", "values": [
      {"measurement": "intracellular translocation in HeLa cells (modified peptides with better translocation)", "setting": "[1]", "value": "better intracellular translocation"},
      {"measurement": "intracellular translocation in Jurkat cells as compared to that of SEQ ID NO:37", "setting": "[2]", "value": "better intracellular translocation"},
      {"measurement": "intracellular translocation compared with KSH1 (in words)", "setting": "[3]", "value": "the same tendency as KSH1-8; also recorded: clearly accentuated intracellular translocation"}
    ]},
    {"substance": "KSH1-12: alanine substitution form of KSH1-1 (RAWMRWYSPTTRRYG; Designed peptide to act as PTD(Protein Transduction Domain))", "values": [
      {"measurement": "intracellular translocation in Jurkat cells as compared to that of SEQ ID NO:37", "setting": "[2]", "value": "better intracellular translocation"},
      {"measurement": "contribution of the alanine-substituted amino acid to the intracellular translocation", "setting": "[3]", "value": "minor contribution"}
    ]},
    {"substance": "KSH1-14: alanine substitution form of KSH1-1 (RLWARWYSPTTRRYG; Designed peptide to act as PTD(Protein Transduction Domain))", "values": [
      {"measurement": "intracellular translocation in Jurkat cells as compared to that of SEQ ID NO:37", "setting": "[2]", "value": "better intracellular translocation"},
      {"measurement": "contribution of the alanine-substituted amino acid to the intracellular translocation", "setting": "[3]", "value": "minor contribution"}
    ]},
    {"substance": "KSH1-16: alanine substitution form of KSH1-1 (RLWMRAYSPTTRRYG; Designed peptide to act as PTD(Protein Transduction Domain))", "values": [
      {"measurement": "intracellular translocation in HeLa cells compared with CHO cells", "setting": "[1]", "value": "slightly higher"}
    ]},
    {"substance": "KSH1-18: alanine substitution form of KSH1-1 (8th serine) (RLWMRWYAPTTRRYG; Designed peptide to act as PTD(Protein Transduction Domain))", "values": [
      {"measurement": "intracellular translocation in HeLa cells (modified peptides with better translocation)", "setting": "[1]", "value": "better intracellular translocation"},
      {"measurement": "intracellular translocation in Jurkat cells as compared to that of SEQ ID NO:37", "setting": "[2]", "value": "better intracellular translocation"},
      {"measurement": "intracellular translocation compared with KSH1 (in words)", "setting": "[3]", "value": "clearly accentuated intracellular translocation"}
    ]},
    {"substance": "KSH1-20: alanine substitution form of KSH1-1 (RLWMRWYSPATRRYG; Designed peptide to act as PTD(Protein Transduction Domain))", "values": [
      {"measurement": "intracellular translocation in HeLa cells (modified peptides with better translocation)", "setting": "[1]", "value": "better intracellular translocation"},
      {"measurement": "intracellular translocation in Jurkat cells as compared to that of SEQ ID NO:37", "setting": "[2]", "value": "better intracellular translocation"},
      {"measurement": "contribution of the alanine-substituted amino acid to the intracellular translocation", "setting": "[3]", "value": "minor contribution"}
    ]},
    {"substance": "KSH1-21: alanine substitution form of KSH1-1 (RLWMRWYSPTARRYG; Designed peptide to act as PTD(Protein Transduction Domain))", "values": [
      {"measurement": "intracellular translocation in Jurkat cells as compared to that of SEQ ID NO:37", "setting": "[2]", "value": "better intracellular translocation"}
    ]},
    {"substance": "KSH2-1: KSH2 with two cysteines substituted with alanine (WKARRQAFRVLHHWN; Designed peptide to act as PTD(Protein Transduction Domain))", "values": [
      {"measurement": "intracellular translocation compared with KSH2", "setting": "[4]; 25 μM", "value": "remarkably decreased intracellular translocation"},
      {"measurement": "intracellular translocation compared with KSH2", "setting": "[4]; 50 μM", "value": "higher intracellular translocation than KSH2"}
    ]},
    {"substance": "KSH2-2: KSH2 with two cysteines substituted with tryptophan (WKWRRQWFRVLHHWN; Designed peptide to act as PTD(Protein Transduction Domain))", "values": [
      {"measurement": "intracellular translocation compared with KSH2", "setting": "[4]; 12.5 μM", "value": "higher intracellular translocation efficiency than KSH2"},
      {"measurement": "intracellular translocation compared with KSH2", "setting": "[4]; 25 μM", "value": "higher intracellular translocation efficiency than KSH2"},
      {"measurement": "intracellular translocation compared with KSH2", "setting": "[4]; 50 μM", "value": "higher intracellular translocation than KSH2"}
    ]},
    {"substance": "KSH2-3: KSH2 with one of the two cysteines substituted with alanine (WKARRQCFRVLHHWN; Designed peptide to act as PTD(Protein Transduction Domain))", "values": [
      {"measurement": "capability of intracellular translocation compared with KSH2", "setting": "[4]", "value": "accentuated"}
    ]},
    {"substance": "KSH2-4: KSH2 with one of the two cysteines substituted with alanine (WKCRRQAFRVLHHWN; Designed peptide to act as PTD(Protein Transduction Domain))", "values": [
      {"measurement": "capability of intracellular translocation compared with KSH2", "setting": "[4]", "value": "accentuated"}
    ]}
  ]
}
